The text below walks through data of US8609870B2, “Treating various disorders using TrkB agonists” (Emory University, priority 2008, dated 2013).

Series [1] has as its target TrkB extra-cellular domain (ECD) (Homo sapiens, UniProt Q16620). The series can be described thus: [3H]-deoxygedunin ligand binding assay, TrkB ECD (Scatchard plot). As for the experimental part: Purified TrkB ECD or ICD proteins (10 μg/each) were incubated with different [^3H-deoxygedunin] in 1 ml binding buffer (0.05 M Na/K phosphate buffer (pH 7.1), 200 mM NaCl) (1 nM [^3H]deoxygedunin˜82300 cpm) at 4° C. for 10 minutes. After incubation, the reaction mixture was loaded on filter paper and washed with 3×5 ml Tris buffer (100 mM Tris, pH 7.1). The dried filter paper was put into a small vial and subjected to liquid scintillation counter analysis. The value of the dissociation constant and the number of sites were obtained from Scatchard plots by using the equation r/[L]free=n/Kd−r/Kd, where r is the ratio of the concentration of bound ligand to the total protein concentration and n is the number of binding sites.
To determine whether an identified active compound physically and directly binds to the TrkB receptor, in vitro binding assays can be conducted with purified TrkB extracellular domain (ECD) and intracellular domain (ICD) recombinant proteins. Purified TrkB ECD and ICD (10 μg of each) are incubated with different concentrations of ^3H-labeled identified active compound in 1 ml of binding buffer (0.05M Na/K phosphate buffer, pH 7.1, 200 mM NaCl) at 4° C. for 10 minutes. After the incubation, the reaction mixture is loaded on filter paper. The mixture is washed three times with Tris buffer (100 mM Tris, pH 7.1), and the dried filter paper is put into a small vial and subjected to liquid scintillation counter analysis. […] The value of the dissociate constant and the number of sites will then be obtained from Scatchard plots using the equation r/[L]free=n/Kd−r/Kd, where r is the ratio of the concentration of bound ligand to the total protein concentration and n is the number of binding sites.
(§1) To determine whether deoxygedunin binds the intra-cellular domain (ICD) or extra-cellular domain (ECD) of the TrkB receptor, ligand binding assays with [^3H]-deoxygedunin were performed. […] The coprecipitated HA-TrkB was also prominently tyrosine phosphorylated (see FIG. 14, 3rd panel).

Another series relates to TrkA or TrkB. Nature of the series: RT-PCR analysis of Trk receptors in mouse brain. The following applies: mouse brain upon deoxygedunin treatment. It is filed as in vivo.
The next series relates to adult male rats. The series can be described thus: Transient middle cerebral artery occlusion (MCAO) stroke model. The following applies: 2 h MCAO.
The next series relates to TrkB. The series can be described thus: TrkB phosphorylation in hippocampal neurons (immunofluorescent staining, immunoblotting). It is filed as cell-based. Particulars: hippocampal neurons. As for the experimental part:
Unless specifically described, primary hippocampal neurons are seeded on poly-L lysine coated coverslips in a 12-well plate. After 7 days in vitro, the neurons are treated with 100 ng/ml BDNF or variety of flavone compounds (1 μM) for 30 minutes, and then are washed with PBS. Cells are fixed with 3% formaldehyde in PBS at room temperature for 10 minutes. The cells then are permeabilized and blocked by 0.4% Triton X-100 and 2% FBS in PBS at room temperature for 15 minutes, are washed with PBS three times, and are treated with anti-MAP2 (1:200) and anti-phospho-TrkB antibodies (1:500). After staining with FITC- or Rhodamine-conjugated secondary antibody, the coverslips are mounted on slides. Fluorescent images are taken by a fluorescence microscope.
BDNF binding to TrkB induces its autophosphorylation and, subsequently, activation of downstream kinase pathways including MAPK and PI3/Akt. […] To examine whether an identified active compound stimulates TrkB-mediated downstream signaling cascades, Western analysis is performed and the activation of Akt and Erk also is monitored. […] To probe the time course of TrkB activation triggered by an identified active compound, hippocampal neurons are treated with an identified active compound at 500 nM and phosphorylation of Erk and Akt is determined over time by Western analysis. […]
Background: In western blotting, separated proteins are transferred to a membrane and probed.

In the next series the target is T1, TrkC (Homo sapiens, UniProt Q16288).
T1 construct: expressed in transfected cells; host or cells: HEK293
T1 sequence (Q16288 32-839, species assumed): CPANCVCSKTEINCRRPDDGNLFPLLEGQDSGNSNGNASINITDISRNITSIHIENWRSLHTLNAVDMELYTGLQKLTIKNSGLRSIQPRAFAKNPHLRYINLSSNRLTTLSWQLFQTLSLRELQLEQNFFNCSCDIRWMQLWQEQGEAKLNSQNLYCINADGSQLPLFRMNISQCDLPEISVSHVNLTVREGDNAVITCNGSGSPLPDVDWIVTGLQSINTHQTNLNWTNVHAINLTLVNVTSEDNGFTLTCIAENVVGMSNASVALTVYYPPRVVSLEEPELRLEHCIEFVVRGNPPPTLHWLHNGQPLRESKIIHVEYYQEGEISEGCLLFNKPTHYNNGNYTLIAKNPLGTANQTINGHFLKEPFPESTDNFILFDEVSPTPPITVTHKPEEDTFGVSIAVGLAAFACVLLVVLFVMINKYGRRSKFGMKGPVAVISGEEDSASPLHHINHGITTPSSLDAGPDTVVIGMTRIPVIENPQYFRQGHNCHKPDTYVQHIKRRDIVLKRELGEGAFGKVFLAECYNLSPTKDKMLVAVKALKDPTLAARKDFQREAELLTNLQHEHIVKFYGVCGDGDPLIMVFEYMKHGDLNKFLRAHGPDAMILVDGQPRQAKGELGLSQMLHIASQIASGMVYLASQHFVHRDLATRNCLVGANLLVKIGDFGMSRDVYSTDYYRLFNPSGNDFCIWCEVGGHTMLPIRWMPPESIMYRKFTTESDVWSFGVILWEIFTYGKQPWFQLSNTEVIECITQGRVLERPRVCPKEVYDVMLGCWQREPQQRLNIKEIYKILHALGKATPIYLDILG
Nature of the series: Tyrosine phosphorylation of TrkC in transfected HEK293 cells. It is filed as cell-based.
From the text: To determine if an identified active compound promotes tyrosine phosphorylation of the other Trk receptors, HEK293 cells are transfected with various Trk receptors, which is followed by treatment with the identified active compound. Treatment with an identified active compound that elicits tyrosine phosphorylation in the TrkB receptor but not in the TrkA or TrkC receptor indicates an active compound.
as §1

In a further series the test system is mice. The series can be described thus: Forced swim test. It is filed as in vivo, mouse. Particulars: for immobility time: TrkB F616A knockin mice. As for the experimental part:
To explore whether an identified active compound has an antidepressant effect like BDNF, a forced swim test is conducted. Adult male mice (2-3 months old) are randomly submitted, without a pre-swim, to a forced swim test of 6 minutes with immobility recorded in the last 4 minutes. The mice are injected intraperitoneally for 5 days with saline, imipramine (20 mg/kg), amitryptyline (15 mg/kg), or an identified active compound (5 mg/kg). The mice are allowed to adapt to the test room for 2 days, and the mice are placed in a clear glass cylinder with a diameter of 16 cm, half-filled with clear water at 24° C.
To investigate whether deoxygedunin mimicked BDNF in suppressing depression-like symptoms, a forced swim test after subchronic treatment of the mice for 5 days with various drugs was conducted. […] To assess whether the behavior responses by 7,8-DHF and deoxygedunin were mediated by TrkB receptor, TrkB F616A knockin mice were used. The transgenic mice were subjected to saline or 1NMPP1 treatment, respectively.

In general, pKd refers to −log10 of the Kd, conventionally taken in molar units.

pKd: −log10 of the molar value.

Chain of TrkB extra-cellular domain (ECD) (Q16620 32-430 limits assumed): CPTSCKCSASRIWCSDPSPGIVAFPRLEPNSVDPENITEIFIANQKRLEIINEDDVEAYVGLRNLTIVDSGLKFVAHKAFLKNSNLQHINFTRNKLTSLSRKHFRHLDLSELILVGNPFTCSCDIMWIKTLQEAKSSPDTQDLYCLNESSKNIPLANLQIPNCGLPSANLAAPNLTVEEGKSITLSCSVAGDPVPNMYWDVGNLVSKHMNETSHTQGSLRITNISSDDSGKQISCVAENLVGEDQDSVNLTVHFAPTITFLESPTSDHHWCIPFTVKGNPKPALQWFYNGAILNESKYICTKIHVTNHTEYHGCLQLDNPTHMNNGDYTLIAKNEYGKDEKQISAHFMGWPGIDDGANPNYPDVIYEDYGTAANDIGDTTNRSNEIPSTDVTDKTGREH

For `CC(=O)O[C@@H]1C[C@H]2C(C)(C)C(=O)C=C[C@]2(C)[C@H]2CC[C@]3(C)C(=CC(=O)O[C@H]3c3ccoc3)[C@@]21C` [deoxygedunin], the negative logarithm of the Kd (pKd) in series [1] (Scatchard plot analysis, read-out: binding constant Kd) was 5.85. The “major binding site in TrkB ECD (truncation assays)” value in series [1] (TrkB ECD truncation mutants) is “Ig2 domain”. Also, in the series with TrkA or TrkB, the “change of TrkA or TrkB (RT-PCR)” value is listed as “no change of TrkA or TrkB”. In the series on adult male rats (5 mg/kg), the “survival of ischemic insult and treatment” value is “All animals included in the study survived”. Also, in the series on adult male rats (5 mg/kg 5 minutes prior to reperfusion, 24 hours after MCAO), the “infarct volumes (TTC stained sections)” value is “significantly reduced infarct volumes”. For the same compound, the TrkB phosphorylation entry in the series on TrkB was “strong TrkB phosphorylation”. Besides, the “tyrosine phosphorylation in TrkC” value on TrkC is on record as “not in TrkA or TrkC receptor”. For the same compound, the immobility time entry was “did not have a significant effect” in the series with mice (TrkB blocked by 1NMPP1) and “substantially reduced the immobility time” with mice (saline group). In addition, the swimming immobility result in the series with mice (mice, subchronic treatment 5 days, imipramine 20 mg/kg, deoxygedunin 5 mg/kg) is reported as “reduced the immobility”.
